Reference: patent publication USRE39496E1, “Kahalalide F and compositions and uses thereof” (PharmaMar, S.A., priority 1993, dated 2007)

Experiments:
[1] = system: human colon carcinoma HT-29; assay: In vitro cytotoxicity, HT-29 cell culture; format: cell-based; conditions: HT-29 cells
Description: (§1) The antitumor activities of this compound has been determined “in vitro” in cell cultures of human lung carcinoma A-549 and human colon carcinoma HT-29. The procedure was carried out using the metnhodology methodology described by Raymond J. Bergeron et al. Biochem. Bioph. Res. Comm. 1984, 121(3), 848-854 and by Alan C. Schroeder et al. J. Med. Chem. 1981, 24 1078-1083.

Penicillium notatum = conditions: 50 μg/disk
Candida albicans = conditions: 50 μg/disk
Tricophyton mentagrophy = conditions: 50 μg/disk
HSV II = conditions: Mv 2 Lu cells / HSV II; concentration giving the printed % reduction
Saccharomyces cerevisiac = conditions: 50 μg/disk
HSV-1 = conditions: CV-1 cells / HSV-1
[2] = system: human lung carcinoma A-549; assay: In vitro cytotoxicity, A-549 cell culture; format: cell-based; conditions: A-549 cells
Description: as §1

Aspergillus oryzae = conditions: 50 μg/disk

Q: How did the “Cytoxicity (IC50)” value [1] turn out when C/C=C1\NC(=O)[C@H](Cc2ccccc2)NC(=O)[C@@H](C(C)C)NC(=O)[C@@H]([C@@H](C)CC)NC(=O)[C@H](NC(=O)[C@H](NC(=O)[C@H](CCCN)NC(=O)[C@H]2CCCN2C(=O)[C@H](NC(=O)[C@@H](NC(=O)[C@@H](NC(=O)[C@H](NC(=O)CCCC(C)C)C(C)C)[C@@H](C)O)C(C)C)C(C)C)[C@@H](C)CC)[C@@H](C)OC(=O)[C@H](C(C)C)NC1=O [Kahalalide F] was run?
A: 0.25 to 0.5 µg/mL

Q: What about the “Antifungal 6 mm disk” value (Penicillium notatum) of the same molecule?
A: 26 mm

Q: What about the “Antifungal 6 mm disk” value (Candida albicans) of the same molecule?
A: 16 mm

Q: And the “Antifungal 6 mm disk” value (Tricophyton mentagrophy)?
A: 34 mm

Q: What about the “Antiviral” value (VSV) of the same molecule?
A: >8 µg/mL

Q: And the “Antiviral” value (HSV II)?
A: 0.5 µg/mL

Q: And the “Antifungal 6 mm disk” value (Saccharomyces cerevisiac)?
A: neg

Q: What about the “Antiviral” value (HSV-1) of the same molecule?
A: >8 µg/mL

Q: What about the “Cytoxicity (IC50)” value [2] of the same molecule?
A: 2.5 µg/mL

Q: What about the “Antifungal 6 mm disk” value (Aspergillus oryzae) of the same molecule?
A: 19 mm
